The values that follow come from PMC11178805, “Ligand-based design of [^18F]OXD-2314 for PET imaging in non-Alzheimer’s disease tauopathies” (Nature Communications, 2024).

For data set [1], the target named is T1, 4R-tau aggregates in PSP tissue (Homo sapiens, UniProt P10636).
T1 construct: tissue Neurodegenerative Disease Brain Bank at UCSF
Description: Competition binding vs [^3H]OXD-2115 in PSP tissue homogenates. Conditions: vs [^3H]OXD-2115, PSP tissue homogenates, n = 1. How it is done: (§1) Fresh frozen, autopsy-confirmed human PD anterior cingulate cortex brain tissue blocks (1 cm^3) were obtained from Dr. Thomas Beach at Banner/Sun Health AZ with funding from the Michael J. Fox Foundation and contained frequent α-synuclein aggregates and no other detectable aggregated amyloid species. The frozen tissue blocks were prepared for the binding assays as previously described[47],[48], except that equal quantities of the homogenates of three AD brains (AD1-AD3, Table S1) were pooled, as were homogenates from three PSP brains (PSP1-PSP3), three CBD brains (CBD1-CBD3), three Pick’s brains (PiD1-PiD3), and 4 PD brains (PD1-PD4) in order to help minimize the inter-subject variability within the different neuropathological groups. Individual subcortical brain tissues from a PSP subject (PSP4) and a CBD subject (CBD4), as well as with the middle frontal cortex of a control subject, were prepared for the binding assays as previously described[47],[48].
(§2) The equilibrium inhibition constant (Ki) values of the unlabeled compounds were determined versus tritium-labeled radioligands using published methods.

Data set [2] has as its target 3R/4R-tau aggregates in AD tissue (Homo sapiens, UniProt P10636). As to the kind of experiment: Competition binding vs [^3H]OXD-2314 in AD tissue. The protocol:
as §1, §2

Data set [3] in a line: Mouse pharmacology (DMPK): plasma and brain concentrations, brain-to-plasma ratios after i.v. administration. In kind it is in vivo, mice. How it is done: Ex vivo evaluation of the BBB permeability of OXD-2314 was performed by measuring the brain-to-plasma ratios in mice. Compound concentrations in plasma (0.03 h, 0.17 h, 0.5 h, 1 h, and 2 h; n = 3 per timepoint) were compared with concentrations in brain (0.03 h, 0.17 h, 1 h, and 2 h; n = 3 per timepoint) for both OXD-2115 and OXD-2314. The total brain-to-plasma concentration ratios were 1.7 for OXD-2314 and 0.1 for OXD-2115. The free concentration ratio for brain-to-plasma was 0.6 for OXD-2314 and 0.002 for OXD-2115 (Figs. S3–S8 and Tables S2, S3).

The nature of data set [4]: Whole-body PET-CT biodistribution and dose estimation in rats. It is filed as in vivo. The text has this:
Six rats (3 male, 19.9 ± 6.2 MBq; and 3 female, 20.8 ± 3.2 MBq) were imaged using PET-CT for whole-body biodistribution of radioactivity and dose estimation using standard mass and density of the organs for adult male and female subjects, respectively (Figure S17). […] The estimated whole-body effective dose was 21.3 ± 3.1 and 22.5 ± 0.9 µSv/MBq for adult male and female models, respectively, with the highest absorbed dose of 50.6 ± 16.9 µGy/MBq in the large intestine.
A total of 8 healthy adult rats (Sprague-Dawley, 384 ± 56 g; 4/4 M/F) underwent PET imaging following bolus injection of [^18F]OXD-2314 (20.5 ± 4.1 MBq), with two animals (M/F) scanned for 120 min with the head in the centre of PET field-of-view (FOV) whereas six animals (3/3 M/F) scanned for 180 min at three bed positions (head-to-bottom) with 15 frames (2×15 s, 2×30 s, 2×60 s, 1×120 s, 1×180 s, 2×240 s, 2×300 s, and 3×600 s) to cover the whole body. PET images were acquired using a nanoScan™ PET/CT scanner (Mediso, Budapest, Hungary) with rats anesthetized under isoflurane in O2 (1.5–2%, 1 L/min) throughout the imaging session and monitored closely for body temperature and respiration rate. A scout CT was acquired for PET FOV positioning, then a material map CT image was acquired for PET corrections of attenuation and scatter and for PET/CT co-registration to define anatomic brain regions of interest. For the brain scans, aacquired list-mode data were sorted into thirty-nine three-dimensional (3D) (3×5 s, 3×15 s, 3×20 s, 7×60 s, 17×180 s, and 6×600 s), true sinograms (ring difference 84). The 3D sinograms were converted in 2D sinograms using Fourier rebinning with corrections for detector geometry, efficiencies, attenuation, and scatter before image reconstruction using 2D filtered back projection with a Hann filter at a cut-off of 0.50 cm^−1. The analytical reconstruction was also used for dose assessment of the multi-frame whole-body images. All data were corrected for dead time and were decay-corrected to the start of acquisition. Iteratively reconstructed images with the manufacturer’s proprietary 3D algorithm (6 subsets, 4 iterations) were used for PET and CT co-registration, for co-registration of subject’s CT with a stereotactic MR atlas of brain[51], for organ region-of-interest (ROI) placement, and for presentation in figures. Filtered back projection images were used to extract regional brain and organ time-activity curves (TACs) with VivoQuant® 2020 software (Invicro, Needham, MA, USA) and Amide (1.0.4)[52]. The selected organs (a total of 12) include brain, lungs, heart wall, heart content, liver, stomach content, spleen, kidneys, small intestine content, upper large intestine content, lower large intestine content, and urinary bladder content. Normalized cumulated activities of each organ were calculated using trapezoidal integration of the area under the TACs plus extrapolation of the TAC to infinity with natural decay of the radiotracer. Dose assessment was performed with OLINDA/EXM 1.1 to calculate the effective dose and the effective dose equivalent. SUV were calculated by normalizing regional radioactivity for injected radioactivity and body weight.

Where “and” joins values, the source holds several entries; their conditions need not be identical. Equal entries are not always repeated.

The term Ki denotes a dissociation constant, usually derived from enzyme kinetics or from competition with a known ligand. The low end stands for a stronger hold on the target, the high end for a looser hold on the target.

Sequence of 3R/4R-tau aggregates in AD tissue (P10636 623-758 limits assumed): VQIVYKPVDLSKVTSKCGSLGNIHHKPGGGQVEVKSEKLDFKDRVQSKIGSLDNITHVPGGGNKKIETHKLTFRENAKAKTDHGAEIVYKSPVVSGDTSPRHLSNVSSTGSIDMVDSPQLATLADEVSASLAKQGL
T1 sequence (P10636 1-441 isoform P10636-8): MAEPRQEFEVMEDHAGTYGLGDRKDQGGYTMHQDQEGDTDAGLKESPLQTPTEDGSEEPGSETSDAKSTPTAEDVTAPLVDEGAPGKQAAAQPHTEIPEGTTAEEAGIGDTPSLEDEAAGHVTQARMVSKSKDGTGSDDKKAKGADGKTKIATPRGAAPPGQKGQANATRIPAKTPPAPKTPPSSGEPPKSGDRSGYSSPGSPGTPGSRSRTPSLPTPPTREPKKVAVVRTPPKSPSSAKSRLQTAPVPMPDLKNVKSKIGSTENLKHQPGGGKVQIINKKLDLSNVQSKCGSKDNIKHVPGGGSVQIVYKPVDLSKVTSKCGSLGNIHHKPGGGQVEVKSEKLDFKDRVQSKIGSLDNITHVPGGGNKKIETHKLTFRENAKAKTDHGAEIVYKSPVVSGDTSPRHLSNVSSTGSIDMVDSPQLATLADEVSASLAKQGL

Regarding `COC1CCCN(c2ccc(-c3cc4cc(O)ccc4[nH]3)c(F)n2)C1` (stereo not shown) [OXD-2314, 2-(2-fluoro-6-(3-methoxypiperidin-1-yl)pyridin-3-yl)-1H-indol-5-ol], the Ki is 4.8 nM in data set [1] and 4.8 ± 0.3 nM in data set [2]. The “Conc. (ng/ml), brain” value in data set [3] (mouse brain, t=1 hr after i.v. administration, individual animals, LC-MS/MS 341.7500>256.1500, re-run Brain_2) was 0.851 ng/mL; in data set [3] (mouse brain, t=2 hr after i.v. administration, individual animals, LC-MS/MS 341.7500>256.1500, re-run Brain_2) it was 0.647 ng/mL and 0.5 ng/mL and 0.3 ng/mL. Also, the Kp,uu (unbound brain-to-plasma ratio) in data set [3] (mouse, brain, iv, mice, i.v., AUC brain:plasma, FREE, read-out: free concentration ratio brain-to-plasma) came out at 0.6. For the same compound, in data set [3] (mouse, brain, iv, mice, i.v., AUC brain:plasma, TOTAL, read-out: total brain-to-plasma concentration ratio), the Kp was 1.7. Moreover, in data set [3] (mouse, brain, iv, mouse brain, t=1 hr after i.v. administration, individual animals, LC-MS/MS 341.7500>256.1500, re-run Brain_2, read-out: Conc. (ng/ml), brain), the concentration at 1 h amounted to 1 ng/mL.
As for `CO[C@H]1CCCN(c2ccc(-c3cc4cc(O)ccc4[nH]3)c([18F])n2)C1` [[^18F]OXD-2314], in data set [4] (adult female model, from rat data), the “estimated whole-body effective dose” value is given as 22.5 ± 0.9 µSv/MBq. Also, the “estimated whole-body effective dose” value in data set [4] (adult male model, from rat data) is given as 21.3 ± 3.1 µSv/MBq. Besides, in data set [4] (from rat data), the “highest absorbed dose, large intestine” value is 50.6 ± 16.9 µGy/MBq. In data set [4] (rats, n = 6), the “uptake of radioactivity (normalized cumulated activity), large intestines” value is given as 0.067 ± 0.032 MBqOrgan⋅hr/MBqInjected; the “uptake of radioactivity (normalized cumulated activity), liver” value is 0.147 ± 0.023 MBqOrgan⋅hr/MBqInjected; the “uptake of radioactivity (normalized cumulated activity), small intestine” value was 0.075 ± 0.019 MBqOrgan⋅hr/MBqInjected.
